Results on 2 compounds are retold here after patent US10829530B2, “Analogues of VDAC1-derived peptides” (B. G. NEGEV TECHNOLOGIES AND APPLICATIONS LTD., AT …, priority 2015, dated 2020).

Each structure is given as a SMILES string. Where two headings read alike, the source gives them in different places.

Data set [1] deals with U-87MG. The format is cell-based. To be noted: Example 7, n=3, read-out: concentration for inducing 50% cell death (EC50).
Experimental: Human primary glioblastoma tumor-derived cell lines (U-87MG), at 6×10^5 cells per ml were incubated in a serum-free medium with the examined peptide at several concentrations for 6 h at 37° C. in the presence of 5% CO2. […] The cells were then trypsinized, centrifuged (1500×g, 5 min), washed with PBS and analyzed for cell death using PI staining and flow cytometer (Beckton-Dickinson, San Jose, Calif.) and BD CellQuest Pro software.
Data set [2] concerns glioma-derived stem cell (GSC) line G7. The data set is described as follows: Cell death induction in G7 glioma-derived stem cells (PI staining, flow cytometry). To be noted: n=3, read-out: concentration for inducing 50% cell death (EC50). It is filed as cell-based, human. How it is done:
The G7 GSC cell line was grown using specific glioblastoma stem cell medium, as described previously (Pollard S M et al 2009. Cell Stem Cell. 4(6):568-580.)
The GSC-specific markers, Sox2, Musashi, and Nestin were highly expressed in G7, as compared to U-87MG cells, containing about 1% GSCs, thus confirming the stemness of the cells (FIG. 7B, 7C). Klf4 was expressed in both cell lines with its level in G7 slightly higher. […] Similar results were obtained when apoptosis was assayed using annexinV/PI staining and FACS analysis (FIG. 7E).
A general note: A flow cytometer gives signals particle by particle.

For data set [3], the system named is GL-261 cells. The data set is described as follows: Cell death induction in GL-261 glioma cells (PI staining, FACS). It is filed as cell-based, mouse. To be noted: GL-261, serum-free medium, 6 h. As to the method: (§1) Cells in suspension were counted (2×10^6/ml) and treated on the same day whereas adherent cells were counted and seeded (1.5−2×10^5/ml) in 12 wells plate 16-24 h before treatment. Cells in suspension or adherent cells were incubated in serum-free medium (200 μl or 500 μl, respectively) with various concentrations of peptide of interest (for 90 min or 6 h, respectively) at 37° C. in the presence of 5% CO2. Cells were collected (adherent cells by trypsinization), centrifuged (1500×g, 5 min), washed once with PBS and analyzed for cell death using propidium iodide (PI) staining and flow cytometer (Beckton-Dickinson, San Jose, Calif.) and BD CellQuest Pro software.
(§2) PI solution was diluted with PBS to a final concentration of 0.5 mg/ml. 2.5 μl of the PI solution were added to each FACS tube, and the tubes were vortexed gently to homogenize the cell suspension. Cell viability was measured in the FACS channel FL3 and data were analyzed using CellQuest Pro software.

The test system of data set [4] is PANC-2 cells. The data set is described as follows: Cell death induction in PANC-2 pancreatic cancer cells (PI staining, flow cytometry). The conditions noted are these: PANC-2, serum-free medium, 6 h. The format is cell-based, mouse. How it is done: as §1, §2
(§3) The human (PANC-1) and mouse (PANC-2) cancerous pancreatic cells were used in this assay. […] Cell death was analyzed by PI staining and percentage of cell death was measured by Flow Cytometery.

The subject of data set [5] is B16F10.0 melanoma cells. The data set is described as follows: Cell death induction in B16F10.0 melanoma cells (PI staining, FACS). It is filed as cell-based, mouse. To be noted: B16F10.0, serum-free medium, 6 h. How it is done:
as §1, §2
Cell death was analyzed by PI staining and FACS.

Data set [6] relates to PANC-1 cells. The data set is described as follows: Cell death induction in PANC-1 pancreatic cancer cells (PI staining, flow cytometry). The format is cell-based, human. To be noted: PANC-1, serum-free medium, 6 h. How it is done: as §1, §2, §3
Data set [7] in a line: Peptide solubility (soluble peptide in supernatant, absorbance at 280 nm). The format is physicochemical. As to the method: The peptides were dissolved in 100% DMSO then diluted by about 10-fold to reduce DMSO to 10-11% and the peptide to 4.4 or 4 mM, and the amount of the soluble peptide was analyzed in the supernatant (SUP) following centrifugation to remove insoluble peptide.
The peptides were synthesized by GL Biochem (Shanghai, China) to >95% purity. […] Then the solutions were diluted to peptide concentration of 20 mg/ml (4.86 mM) by adding while mixing 95 μl of distilled water and the diluted solutions were incubated in 37° C. water bath for 30 minutes to allow further solubilization until the solutions became clear. The peptide solutions were then centrifuged for 5 min at 15,000 g and the supernatant of each preparation was transferred to fresh Eppendorf tube with low binding capacity. Aliquots of the obtained solution were taken for further analysis of peptide concentration.
Peptides were dissolved as described hereinabove. Concentration examined was 4 mM; solvent used was DDW/10% DMSO/150 mM NaCl (NaCl added later at a final concentration of 150 mM) as a common physiologically compatible solution for drug administration.
The molecular weight of Tf-D-LP=4111.67 g/mol. […] 8.5 μl DMSO 100% were added to the peptide to form a concentration of 40 mM, and the solution was incubated in a water bath at 37° C. for 15 min until the solution became clear. The solution obtained was diluted by about 10-fold with DDW reaching a final concentration of 4.4 mM (11.1% DMSO), incubated in a water bath at 37° C. for 15 min, and then incubated overnight at 4° C. […] Peptide concentration in each step was analyzed.
Peptide concentration was determined from the absorbance at 280 nm following its denaturation and using the following calculation:
Weight/volume (mg/ml) concentration was calculated according to the equation: mg peptide/ml=(AU×DF×Mw)/[(TrypW #×5560)+(TyrY #×1200)]: • AU—peptide absorbance measured • DF—dilution factor • Mw—Molecular weight • TrypW #—number of Tryptophan in the peptide sequence • TyrY #—number of Tyrosine in the peptide sequence

Data set [8] has as its system BNL1ME cell line. It is filed as cell-based. To be noted: serum-free medium, 6 h; for EC50: read-out: EC50 of cell death. As to the method:
as §1, §2
Cells were incubated in a serum-free medium with each peptide type for 6 h at 37° C. in the presence of 5% CO2.

The subject of data set [9] is THP-1 cells. The data set is described as follows: Cell death induction in THP-1 leukemia cells (PI staining, flow cytometry). It is filed as cell-based, human. The conditions noted are these: THP-1, serum-free medium, 90 min, 37° C. As to the method:
as §1, §2
Cells of human monocytic cell line derived from an acute monocytic leukemia patient (THP-1 cells, 400,000 cells per well) were used in this experiment.

The test system of data set [10] is U-87MG cells. Description: Intracranial-orthotopic U-87MG xenograft in nude mice (MRI tumor volume, survival). The conditions noted are these: administrated intravenously, inferred from effect on brain tumor. It is filed as in vivo, mouse.
Experimental: For the intracranial-orthotopic xenograft mouse model, U-87MG cells (8×10^4) were engrafted into a nude mouse brain using a stereotactic device. […] Mice were subjected to MRI and then sacrificed. Brains were excised and processed for IHC. Tumor volume was analyzed using VivoQuant 2.10 software.
25 and 32 days later, tumor growth was monitored by MRI (FIG. 11A).
Data set [11] relates to A549. Description: Peptide storage stability, read out as death of A549 cells (PI staining, FACS). It is filed as cell-based. To be noted: for activity kept after storage: assayed at 10 μM on A549. How it is done:
The peptide (0.5 mM in 5% DMSO) was incubated at −20° C., 4° C. or 25° C. for the indicated time, and then assayed (at 10 μM) for its capability to induce death of A549 using PI staining and FACS analysis. In untreated cells, cell death was 3%, while with the peptide, cell death was over 90% (n=2).
The assay conditions were as described in FIG. 8A above.

Regarding `CC[C@H](C)[C@H](NC(=O)[C@H](Cc1ccc(O)cc1)NC(=O)[C@@H]1CCCN1C(=O)[C@H](CCCNC(=N)N)NC(=O)[C@H](Cc1c[nH]cn1)NC(=O)[C@@H](CO)NC(=O)[C@@H](Cc1c[nH]c2ccccc12)NC(=O)[C@H](NC(=O)[C@@H](Cc1c[nH]c2ccccc12)NC(=O)[C@@H](CCC(=O)O)NC(=O)[C@@H](CCCCN)NC(=O)[C@@H](CCCCN)NC(=O)[C@@H](CC(C)C)NC(=O)[C@@H](CCC(=O)O)NC(=O)[C@H](NC(=O)[C@@H](C)NC(=O)[C@H](NC(=O)[C@@H](CC(N)=O)NC(=O)[C@@H](CC(C)C)NC(=O)[C@@H](C)NC(=O)[C@@H](Cc1c[nH]c2ccccc12)NC(=O)[C@H](NC(=O)[C@@H](C)NC(=O)CNC(=O)[C@@H](CC(N)=O)NC(=O)[C@@H](CO)NC(=O)[C@@H](CC(N)=O)NC(=O)[C@@H](CCCCN)NC(=O)[C@@H](Cc1c[nH]c2ccccc12)NC(=O)[C@H](NC(=O)[C@@H](Cc1c[nH]c2ccccc12)NC(=O)[C@H](N)CCCCN)[C@H](C)O)[C@H](C)O)C(C)C)[C@H](C)O)[C@H](C)O)C(=O)N[C@@H](C)C(=O)N[C@@H](Cc1c[nH]cn1)C(=O)O` [Retro-Tf-D-LP4, D-Lys-D-Trp-D-Thr-D-Trp-D-Lys-D-Asn-D-Ser-D-Asn-D-Gly-D-Ala-D-Thr-D-Trp-D-Ala-D-Leu-D-Asn-D-Val-D-Ala-D-Thr-D-Glu-D-Leu-D-Lys-D-Lys-D-Glu-D-Trp-D-Thr-D-Trp-D-ser-His-Arg-Pro-Tyr-Ile-Ala-His], the EC50 in data set [1] was 1.5 ± 0.3 µM; in [2] it was 2.5 ± 0.3 µM; in [3], 2.2 µM; in data set [4], about 4 µM; in data set [5] it was 7 µM; in [6], about 4 µM. In addition, the EC50 in [8] worked out at 2.5 µM; in [9] it was 4.5 µM. Moreover, the “solubility in 100% DMSO” value in data set [7] was “high solubility”. Also, in data set [10], the “crossing of the blood brain barrier (BBB)” value is reported as “can cross the BBB”.

Regarding `CC[C@H](C)[C@H](NC(=O)[C@H](C)NC(=O)[C@@H](N)Cc1c[nH]cn1)C(=O)N[C@@H](Cc1ccc(O)cc1)C(=O)N1CCC[C@H]1C(=O)N[C@@H](CCCNC(=N)N)C(=O)N[C@@H](Cc1c[nH]cn1)C(=O)N[C@H](CO)C(=O)N[C@H](Cc1c[nH]c2ccccc12)C(=O)N[C@@H](C(=O)N[C@H](Cc1c[nH]c2ccccc12)C(=O)N[C@H](CCC(=O)O)C(=O)N[C@H](CCCCN)C(=O)N[C@H](CCCCN)C(=O)N[C@H](CC(C)C)C(=O)N[C@H](CCC(=O)O)C(=O)N[C@@H](C(=O)N[C@H](C)C(=O)N[C@@H](C(=O)N[C@H](CC(N)=O)C(=O)N[C@H](CC(C)C)C(=O)N[C@H](C)C(=O)N[C@H](Cc1c[nH]c2ccccc12)C(=O)N[C@@H](C(=O)N[C@H](C)C(=O)NCC(=O)N[C@H](CC(N)=O)C(=O)N[C@H](CO)C(=O)N[C@H](CC(N)=O)C(=O)N[C@H](CCCCN)C(=O)N[C@H](Cc1c[nH]c2ccccc12)C(=O)N[C@@H](C(=O)N[C@H](Cc1c[nH]c2ccccc12)C(=O)N[C@H](CCCCN)C(=O)O)[C@H](C)O)[C@H](C)O)C(C)C)[C@H](C)O)[C@H](C)O` [Tf-D-LP4, His-Ala-Ile-Tyr-Pro-Arg-His-D-Ser-D-Trp-D-Thr-D-Trp-D-Glu-D-Lys-D-Lys-D-Leu-D-Glu-D-Thr-D-Ala-D-Val-D-Asn-D-Leu-D-Ala-D-Trp-D-Thr-D-Ala-D-Gly-D-Asn-D-Ser-D-Asn-D-Lys-D-Trp-D-Thr-D-Trp-D-Lys], the EC50 is 3.3 µM in [3], 2.7 µM in data set [8] and 8 µM in [9]. Further, the figures for the “activity kept after storage” value in [11] (0.5 mM in 5% DMSO stored at 4° C. or 25° C.) and in data set [11] (0.5 mM in 5% DMSO stored at −20° C.) were 75% and “full activity”, respectively. The cell death result in data set [11] (A549, 10 μM peptide, n=2, untreated cells 3%) was “over 90%”. In addition, in data set [7] (100% DMSO), the “solubility in 100% DMSO” value is “high solubility”. The “soluble peptide out of the total peptide content” value in [7] (DMSO concentration reduced to 10%, about 4 mM peptide) is on record as “about 10%”. Also, the “maximal cell death induction” value in data set [8] came to 70%.
